# Legend:
# [1] = pKa of amine lipid by TNS fluorescence; type: physicochemical; conditions: probe TNS (6-(p-toluidino)-2-naphthalenesulfonic acid sodium salt), unformulated amine lipid in ethanol, sodium phosphate buffers -9.0
# Description: The pKa of each amine lipid was determined according to the method in Jayaraman, et al. (Angewandte Chemie, 2012) with the following adaptations. The pKa was determined for unformulated amine lipid in ethanol. Lipid stock solutions (2.94 mM) were diluted into Sodium Phosphate Buffers (0.1 M, Boston Bioproducts) of different pH (pH-range: 4.5-9.0) yielding a final lipid concentration of approx. 100 μM. The test samples were supplemented with TNS {6-(p-Toluidino)-2-naphthalenesulfonic acid sodium salt}, incubated and the fluorescence intensity was measured using excitation and emission wavelengths of 321 nm and 448 nm, respectively. The recorded data were normalized and the respective pKa values were derived from sigmoidal fitting.
# [2] = test system: mouse TTR; experiment: Serum TTR ELISA in mice after LNP delivery; type: in vivo; conditions: mouse serum, relative to TSS control of same experiment
# Description: For studies measuring in vivo editing in liver, CD-1 female mice were dosed at 0.1 mpk unless otherwise noted. Animals were euthanized at 6 or 7 days by exsanguinationvia cardiac puncture under isoflourane anesthesia. Liver tissue was collected from each animal for DNA extraction and analysis. Blood was collected into serum separator tubes or into tubes containing buffered sodium citrate for plasma as described herein. Cohorts of mice were measured for editing by Next-Generation Sequencing (NGS).
# Blood was collected and the serum was isolated as indicated. The total mouse TTR serum levels were determined using a Mouse Prealbumin (Transthyretin) ELISA Kit (Aviva Systems Biology, Cat. OKIA00111). Briefly, sera were serial diluted with kit sample diluent, e.g. to a final dilution of 10,000-fold and/or 2,500-fold. The diluted sample was then added to the ELISA plates and the assay was then carried out according to directions. Serum TTR data from treatment groups are expressed as a percentage of vehicle control levels.
Compound,pKa [1],Serum TTR % TSS ([2]; dose 0.03 mpk),Serum TTR % TSS ([2]; dose 0.1 mpk)
"CCCCC/C=C\C/C=C\CCCCCCCC(=O)OCC(COC(=O)CCCCCCC/C=C\C/C=C\CCCCC)OC(=O)CCC(CCCCCCCCCCCC)OC(=O)OCCCN(CC)CC (centres unmarked) [Compound 2, 2-((4-(((3-(diethylamino)propoxy)carbonyl)oxy)hexadecanoyl)oxy)propane-1,3-diyl (9Z,9′Z,12Z,12′Z)-bis(octadeca-9,12-dienoate)]",5.28,–,–
"CCCCC/C=C\C/C=C\CCCCCCCC(=O)OCC(COC(=O)CCCCCCC/C=C\C/C=C\CCCCC)OC(=O)CCC(CCCCCCCCCCCC)OC(=O)OCCN(C)C (centres unmarked) [Compound 4, 2-((4-(((2-(dimethylamino)ethoxy)carbonyl)oxy)hexadecanoyl)oxy)propane-1,3-diyl (9Z,9′Z,12Z,12′Z)-bis(octadeca-9,12-dienoate)]",< 5,73.09 % TSS,–
"CCCCC/C=C\C/C=C\CCCCCCCC(=O)OCC(COC(=O)CCCCCCC/C=C\C/C=C\CCCCC)OC(=O)CCC(CCCCCCCCCCCC)OC(=O)NCCCN(CC)CC (centres unmarked) [Compound 13, 2-((4-(((3-(diethylamino)propyl)carbamoyl)oxy)hexadecanoyl)oxy)propane-1,3-diyl (9Z,9′Z,12Z,12′Z)-bis(octadeca-9,12-dienoate)]",7.2,–,–
"CCCCC/C=C\C/C=C\CCCCCCCC(=O)OCC(COC(=O)CCCCCCC/C=C\C/C=C\CCCCC)OC(=O)CCC(CCCCCCCC)OC(=O)N(C)CCN(C)CC (centres unmarked) [Compound 37, 2-((4-(((2-(ethyl(methyl)amino)ethyl)(methyl)carbamoyl)oxy)dodecanoyl)oxy) propane-1,3-diyl (9Z,9′Z,12Z,12′Z)-bis(octadeca-9,12-dienoate)]",5.36,–,–
"CCCCC/C=C\C/C=C\CCCCCCCC(=O)OCC(COC(=O)CCCCCCC/C=C\C/C=C\CCCCC)OC(=O)CCCOC(=O)NCCN(C)CC [Compound 43, 2-((4-(((2-(ethyl(methyl)amino)ethyl)carbamoyl)oxy)butanoyl)oxy)propane-1,3-diyl (9Z,9′Z,12Z,12′Z)-bis(octadeca-9,12-dienoate)]",7.33,–,–
"CCCCC/C=C\C/C=C\CCCCCCCC(=O)OCC(COC(=O)CCCCCCC/C=C\C/C=C\CCCCC)COC(=O)CCC(CCCCCCCC)OC(=O)NCCN(C)CC (centres unmarked) [Compound 54, 2-(12-methyl-6-octyl-3,8-dioxo-2,7-dioxa-9,12-diazatetradecyl)propane-1,3-diyl (9Z,9′Z,12Z,12′Z)-bis(octadeca-9,12-dienoate)]",6.25,–,18.32 % TSS
"CCCCCCCCCCOC(=O)CCCCCCCC(=O)OCC(COC(=O)CCCCCCCC(=O)OCCCCCCCCCC)OC(=O)CC(CCCCCCCC)OC(=O)NCCN(C)CC (centres unmarked) [Compound 56, 9,9′-didecyl O′1,O1-(2-((3-(((2-(ethyl(methyl)amino)ethyl)carbamoyl)oxy)undecanoyl)oxy)propane-1,3-diyl) di(nonanedioate)]",6.28,–,69.70 % TSS
CCCCCCCCCCOC(=O)CCCCCCCC(=O)OCC(COC(=O)CCCCCCCC(=O)OCCCCCCCCCC)OC(=O)CCCC(CCCCCCCC)OC(=O)NCCN(C)CC (centres unmarked) [Compound 58],6.32,–,–
"CCCCC/C=C\C/C=C\CCCCCCCC(=O)OCC(COC(=O)CCCCCCC/C=C\C/C=C\CCCCC)OC(=O)CCC(CCCCC(C)C)OC(=O)NCCN(C)CC (centres unmarked) [Compound 80, 2-((4-(((2-(ethyl(methyl)amino)ethyl)carbamoyl)oxy)-9-methyldecanoyl)oxy)propane-1,3-diyl (9Z,9′Z,12Z,12′Z)-bis(octadeca-9,12-dienoate)]",6.41,–,–
"CCCCC/C=C\C/C=C\CCCCCCCC(=O)OCC(COC(=O)CCCCCCC/C=C\C/C=C\CCCCC)OC(=O)CCC(CCCCCC(C)C)OC(=O)NCCN(C)CC (centres unmarked) [Compound 81, 2-((4-(((2-(ethyl(methyl)amino)ethyl)carbamoyl)oxy)-10-methylundecanoyl)oxy)propane-1,3-diyl (9Z,9′Z,12Z,12′Z)-bis(octadeca-9,12-dienoate)]",6.42,–,–
"CCCCC/C=C\C/C=C\CCCCCCCC(=O)OCC(COC(=O)CCCCCCC/C=C\C/C=C\CCCCC)OC(=O)CCC(CCCCC(C)C)OC(=O)NCCN1CCCC1 (centres unmarked) [Compound 82, 2-((9-methyl-4-(((2-(pyrrolidin-1-yl)ethyl)carbamoyl)oxy)decanoyl)oxy)propane-1,3-diyl (9Z,9′Z,12Z,12′Z)-bis(octadeca-9,12-dienoate)]",6.71,–,–
"CCCCC/C=C\C/C=C\CCCCCCCC(=O)OCC(COC(=O)CCCCCCC/C=C\C/C=C\CCCCC)OC(=O)CCC(CCCCCC(C)C)OC(=O)NCCN1CCCC1 (centres unmarked) [Compound 83, 2-((10-methyl-4-(((2-(pyrrolidin-1-yl)ethyl)carbamoyl)oxy)undecanoyl)oxy)propane-1,3-diyl (9Z,9′Z,12Z,12′Z)-bis(octadeca-9,12-dienoate)]",6.61,–,–
"CCCCC/C=C\C/C=C\CCCCCCCC(=O)OCC(COC(=O)CCCCCCC/C=C\C/C=C\CCCCC)COC(=O)C(C)(C)C(CCCCCCCC)OC(=O)NCCN(C)CC (centres unmarked) [Compound 99, 2-(4,4,11-trimethyl-5-octyl-3,7-dioxo-2,6-dioxa-8,11-diazatridecyl)propane-1,3-diyl (9Z,9′Z,12Z,12′Z)-bis(octadeca-9,12-dienoate)]",5.96,92.42 % TSS,42.87 % TSS
"CCCCC/C=C\C/C=C\CCCCCCCC(=O)OCC(COC(=O)CCCCCCC/C=C\C/C=C\CCCCC)OC(=O)CCC(CCCCCC)OC(=O)OCCCN1CCC1 (centres unmarked) [Compound 101, 2-((4-(((3-(azetidin-1-yl)propoxy)carbonyl)oxy)decanoyl)oxy)propane-1,3-diyl (9Z,9′Z,12Z,12′Z)-bis(octadeca-9,12-dienoate)]",6.75,–,–
"CCCCC/C=C\C/C=C\CCCCCCCC(=O)OCC(COC(=O)CCCCCCC/C=C\C/C=C\CCCCC)OC(=O)CCC(CCCCCC)OC(=O)OCCCN1CCCCC1 (centres unmarked) [Compound 102, 2-((4-(((3-(piperidin-1-yl)propoxy)carbonyl)oxy)decanoyl)oxy)propane-1,3-diyl (9Z,9′Z,12Z,12′Z)-bis(octadeca-9,12-dienoate)]",5.16,–,–
"CCCCC/C=C\C/C=C\CCCCCCCC(=O)OCC(COC(=O)CCCCCCC/C=C\CCCCCCCC)OC(=O)CCC(CCCC)OC(=O)NCCN1CCCC1 (centres unmarked) [Compound 109, 3-(oleoyloxy)-2-((4-(((2-(pyrrolidin-1-yl)ethyl)carbamoyl)oxy)octanoyl)oxy)propyl (9Z,12Z)-octadeca-9,12-dienoate]",6.91,–,–
"CCCCCCCC/C=C\CCCCCCCC(=O)OCC(COC(=O)CCCCCCC/C=C\CCCCCCCC)OC(=O)CCC(CCCC)OC(=O)NCCN1CCCC1 (centres unmarked) [Compound 110, 2-((4-(((2-(pyrrolidin-1-yl)ethyl)carbamoyl)oxy)octanoyl)oxy)propane-1,3-diyl dioleate]",7.01,–,–
"CCCCC/C=C\C/C=C\CCCCCCCC(=O)OCC(COC(=O)CCC(CCCC)OC(=O)NCCN1CCCC1)OC(=O)CCCCCCC/C=C\C/C=C\CCCCC (centres unmarked) [Compound 111, 3-((4-(((2-(pyrrolidin-1-yl)ethyl)carbamoyl)oxy)octanoyl)oxy)propane-1,2-diyl (9Z,9′Z,12Z,12′Z)-bis(octadeca-9,12-dienoate)]",7.02,–,–
"CCCCC/C=C\C/C=C\CCCCCCCC(=O)OCC(COC(=O)CCCCCCC/C=C\C/C=C\CCCCC)COC(=O)CCC(CCCC)OC(=O)NCCN1CCCC1 (centres unmarked) [Compound 112, 2-(((4-(((2-(pyrrolidin-1l-yl)ethyl)carbamoyl)oxy)octanoyl)oxy)methyl)propane-1,3-diyl (9Z,9′Z,12Z,12′Z)-bis(octadeca-9,12-dienoate)]",7.02,–,–
"CCCCC/C=C\C/C=C\CCCCCCCC(=O)OCC(COC(=O)CCCCCCC/C=C\C/C=C\CCCCC)COC(=O)CC(CCCC)OC(=O)NCCN1CCCC1 (centres unmarked) [Compound 113, 2-(((3-(((2-(pyrrolidin-1-yl)ethyl)carbamoyl)oxy)heptanoyl)oxy)methyl)propane-1,3-diyl (9Z,9′Z,12Z,12′Z)-bis(octadeca-9,12-dienoate)]",7.02,–,–
CCCCC/C=C\C/C=C\CCCCCCCC(=O)OCC(COC(=O)CCCCCCC/C=C\C/C=C\CCCCC)OC(=O)CCC(CCCCCCCCCCCC)OC(=O)OC1CCN(C)CC1 (centres unmarked) [f47],5.99,–,–

# Source: patent publication US12077483B2, “Modified amine lipids” (Intellia Therapeutics, Inc., priority 2018, dated 2024)
